Data: patent publication US5643604A, “Parenteral dosage form” (Aplicaciones Farmaceuticas S.A. De C.V., priority 1990, dated 1997)

Experiments:
[1] = Differential thermal analysis (DSC); settings: Shimadzu DSC 50 calorimeter
Source text: (§1) It is necessary to check that no chemical damage of the substances occurs during the spray-freezing process, which could modify their therapeutic properties. The starting materials (crystals) and the microspheres obtained by spray-freezing are compared by UV and IR spectrophotometry. UV spectras shall always be superimposable and IR spectras shall correspond. If differences in infrared spectras appear, it shall be checked if they are due to a polymorphism phenomenon, by means of an HPLC setup with diode-array detection. Differential thermal analysis is also used, not only to check the melting points, but also to determine if endothermic or exothermic transitions occur, due either to structure modifications or to a polymorphism, which may influence the microsphere information process, or due to heat-induced chemical reactions.
Thermal analysis: Shimadzu DSC 50 calorimeter and CR4A workstation.

[2] = Comparative infrared spectrophotometry (FT-IR, with HPLC diode-array) before and after formation of microspheres; assay type: physicochemical; settings: after the formation of microspheres; potassium bromide dispersion
Source text: as §1
Equipment used in infrared spectrophotometry: Nicolet 205 FT-IR. Dispersion medium: potassium bromide. Chromatography: HPLC device with photo diode-array detector, model Waters 990 and Nec powermate 2 workstation.

[3] = Comparative UV spectrophotometric analysis before and after formation of microspheres; assay type: physicochemical; settings: starting materials (crystals) vs microspheres obtained by spray-freezing; ethanol for 17-beta-estradiol and cholesterol, 0.1N HCl for the others
Source text: as §1
Equipment used in ultraviolet spectrography: Hewlett Packard model 8452A with photodiode arrangement and quartz cell with a beam of 0.1 cm.

[4] = general statement, no test described; cited from earlier work

Structure (SMILES)	degradation on differential thermograms [1]	chemical modification by infrared spectrophotometry [2]	chemical modification by UV spectrophotometry [3]	solubility in water [4]
C[C@]12CC[C@@H]3c4ccc(O)cc4CC[C@H]3[C@@H]1CC[C@@H]2O [17-beta-estradiol]	no degradation	no modification	no trace of modification	–
CCCC[N+]1(C)C2CC(OC(=O)C(CO)c3ccccc3)CC1C1OC12 (centres unmarked) [butylhioscine bromide]	–	produces chemical modifications	no trace of modification	–
Cn1c(=O)c2c(ncn2C)n(C)c1=O [caffeine]	no degradation	–	no trace of modification	–
CC(C)CCC[C@@H](C)[C@H]1CC[C@H]2[C@@H]3CC=C4C[C@@H](O)CC[C@]4(C)[C@H]3CC[C@]12C [cholesterol]	–	no modification	no trace of modification	–
CN1C(=O)CN=C(c2ccccc2)c2cc(Cl)ccc21 [diazepam]	no degradation	–	–	–
CCN(CC)CCNC(=O)c1cc(Cl)c(N)cc1OC [methoclopramide]	–	–	–	freely soluble in water
